Laboratory results taken from ChEMBL document CHEMBL3813659 (Bioorg Med Chem, 2016).

How the values were obtained:
[1] = biological target: T1, Oxytocin receptor (Homo sapiens) (UniProt P30559); assay: Intrinsic agonist activity at human oxytocin receptor expressed in CHO cells assessed as increase in intracellular calcium flux measured for 90 sec by fluo-4 dye based FLIPR assay relative to control; format: functional, cell-based
T1 sequence (whole entry): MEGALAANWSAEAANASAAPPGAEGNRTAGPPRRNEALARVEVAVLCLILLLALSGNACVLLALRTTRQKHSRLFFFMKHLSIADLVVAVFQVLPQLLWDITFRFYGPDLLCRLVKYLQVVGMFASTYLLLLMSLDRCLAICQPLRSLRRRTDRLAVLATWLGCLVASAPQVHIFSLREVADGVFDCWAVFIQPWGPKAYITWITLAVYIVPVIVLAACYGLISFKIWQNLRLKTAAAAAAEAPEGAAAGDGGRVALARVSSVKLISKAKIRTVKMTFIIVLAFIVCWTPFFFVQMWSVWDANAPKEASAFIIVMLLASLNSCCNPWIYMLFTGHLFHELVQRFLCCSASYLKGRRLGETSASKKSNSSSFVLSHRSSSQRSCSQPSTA

Oxytocin receptor [2] = biological target: T2, Oxytocin receptor (Homo sapiens, UniProt P30559); assay: Displacement of [3H]8-arginine-vasopressin from human oxytocin receptor expressed in CHO cell membrane incubated for 1 hr by liquid scintillation counting method; format: cell membranes
T2 sequence (P30559 whole entry): T1 sequence (whole entry)

Oxytocin receptor [3] = biological target: T2, Oxytocin receptor; assay: Agonist activity at human oxytocin receptor expressed in CHO cells assessed as increase in intracellular calcium flux measured for 90 sec by fluo-4 dye based FLIPR assay; format: functional, cell-based

SMILES: CC[C@H](C)[C@@H]1NC(=O)[C@H](Cc2ccc(O)cc2)NC(=O)CCSSC[C@@H](C(=O)N2CCC[C@H]2C(=O)N[C@@H](CC(C)C)C(=O)NCC(N)=O)NC(=O)[C@H](CC(N)=O)NC(=O)[C@H](CCC(N)=O)NC1=O
- Intrinsic activity [1]: 106%
- Ki (Oxytocin receptor [2]): 0.33 nM

SMILES: CC[C@H](C)[C@@H]1NC(=O)[C@H](Cc2ccc(O)cc2)NC(=O)[C@@H](N)CSSC[C@@H](C(=O)N2CCC[C@H]2C(=O)N[C@@H](CC(C)C)C(=O)NCC(N)=O)N(C)C(=O)[C@H](CC(N)=O)NC(=O)[C@H](CCC(N)=O)NC1=O
- Intrinsic activity [1]: 95%
- Ki (Oxytocin receptor [2]): 1.05 nM
- EC50 (Oxytocin receptor [3]): 0.99 nM

SMILES: CC[C@H](C)[C@@H]1NC(=O)[C@H](Cc2ccc(O)cc2)N(C)C(=O)CCSSC[C@@H](C(=O)N2CCC[C@H]2C(=O)N[C@@H](CC(C)C)C(=O)NCC(N)=O)N(C)C(=O)[C@H](CC(N)=O)NC(=O)[C@H](CCC(N)=O)NC1=O
- Intrinsic activity [1]: 97%
- EC50 (Oxytocin receptor [3]): 7.98 nM

SMILES: CC[C@H](C)[C@@H]1NC(=O)[C@H](Cc2ccc(O)cc2)NC(=O)[C@@H](NC)CSSC[C@@H](C(=O)N2CCC[C@H]2C(=O)N[C@@H](CC(C)C)C(=O)NCC(N)=O)NC(=O)[C@H](CC(N)=O)NC(=O)[C@H](CCC(N)=O)NC1=O
- Intrinsic activity [1]: 102%
- Ki (Oxytocin receptor [2]): 5.47 nM
- EC50 (Oxytocin receptor [3]): 4.77 nM

SMILES: CC[C@H](C)[C@@H]1NC(=O)[C@H](Cc2ccc(O)cc2)NC(=O)[C@@H](N)CSSC[C@@H](C(=O)N2CCC[C@H]2C(=O)N[C@@H](CC(C)C)C(=O)NCC(N)=O)NC(=O)[C@H](CC(N)=O)N(C)C(=O)[C@H](CCC(N)=O)NC1=O
- Intrinsic activity [1]: 100%
- Ki (Oxytocin receptor [2]): 31.5 nM
- EC50 (Oxytocin receptor [3]): 26 nM

SMILES: CC[C@H](C)[C@H]1C(=O)N[C@@H](CCC(N)=O)C(=O)N[C@@H](CC(N)=O)C(=O)N[C@H](C(=O)N2CCC[C@H]2C(=O)N[C@@H](CC(C)C)C(=O)NCC(N)=O)CSSC[C@H](N)C(=O)N[C@@H](Cc2ccc(O)cc2)C(=O)N1C
- Intrinsic activity [1]: 100%
- Ki (Oxytocin receptor [2]): 113 nM
- EC50 (Oxytocin receptor [3]): 14.7 nM

SMILES: CC[C@H](C)[C@@H]1NC(=O)[C@H](Cc2ccc(O)cc2)N(C)C(=O)[C@@H](N)CSSC[C@@H](C(=O)N2CCC[C@H]2C(=O)N[C@@H](CC(C)C)C(=O)NCC(N)=O)NC(=O)[C@H](CC(N)=O)NC(=O)[C@H](CCC(N)=O)NC1=O
- Intrinsic activity [1]: 98%
- Ki (Oxytocin receptor [2]): 6.76 nM
- EC50 (Oxytocin receptor [3]): 23.9 nM

SMILES: CC[C@H](C)[C@@H]1NC(=O)[C@H](Cc2ccc(O)cc2)NC(=O)[C@@H](NC)CSSC[C@@H](C(=O)N2CCC[C@H]2C(=O)N[C@@H](CC(C)C)C(=O)NCC(N)=O)N(C)C(=O)[C@H](CC(N)=O)NC(=O)[C@H](CCC(N)=O)NC1=O
- Intrinsic activity [1]: 81%
- Ki (Oxytocin receptor [2]): 98.6 nM
- EC50 (Oxytocin receptor [3]): 175 nM

SMILES: CC[C@H](C)[C@@H]1NC(=O)[C@H](Cc2ccc(O)cc2)NC(=O)[C@@H](N)CSSC[C@@H](C(=O)N2CCC[C@H]2C(=O)N[C@@H](CC(C)C)C(=O)NCC(N)=O)NC(=O)[C@H](CC(N)=O)NC(=O)[C@H](CCC(N)=O)NC1=O
- Intrinsic activity [1]: 102%

SMILES: CC[C@H](C)[C@@H]1NC(=O)[C@H](Cc2ccc(O)cc2)NC(=O)[C@@H](N)CSSC[C@@H](C(=O)N2CCC[C@H]2C(=O)N[C@@H](CC(C)C)C(=O)N(C)CC(N)=O)N(C)C(=O)[C@H](CC(N)=O)NC(=O)[C@H](CCC(N)=O)NC1=O
- Intrinsic activity [1]: 90%
- Ki (Oxytocin receptor [2]): 34.3 nM
- EC50 (Oxytocin receptor [3]): 10.8 nM

SMILES: CC[C@H](C)[C@@H]1NC(=O)[C@H](Cc2ccc(O)cc2)NC(=O)[C@@H](N)CSSC[C@@H](C(=O)N2CCC[C@H]2C(=O)N[C@@H](CC(C)C)C(=O)N(C)CC(N)=O)NC(=O)[C@H](CC(N)=O)NC(=O)[C@H](CCC(N)=O)NC1=O
- Intrinsic activity [1]: 102%
- Ki (Oxytocin receptor [2]): 1.32 nM
- EC50 (Oxytocin receptor [3]): 0.47 nM

SMILES: CC[C@H](C)[C@@H]1NC(=O)[C@H](Cc2ccc(O)cc2)NC(=O)[C@@H](N)CSSC[C@@H](C(=O)N2CCC[C@H]2C(=O)N(C)[C@@H](CC(C)C)C(=O)NCC(N)=O)N(C)C(=O)[C@H](CC(N)=O)NC(=O)[C@H](CCC(N)=O)NC1=O
- Intrinsic activity [1]: 83%
- Ki (Oxytocin receptor [2]): 68.5 nM
- EC50 (Oxytocin receptor [3]): 15.6 nM

SMILES: CC[C@H](C)[C@@H]1NC(=O)[C@H](Cc2ccc(O)cc2)NC(=O)CCSSC[C@@H](C(=O)N2CCC[C@H]2C(=O)N(C)[C@@H](CC(C)C)C(=O)NCC(N)=O)N(C)C(=O)[C@H](CC(N)=O)NC(=O)[C@H](CCC(N)=O)NC1=O
- Intrinsic activity [1]: 86%
- EC50 (Oxytocin receptor [3]): 4.23 nM

SMILES: CC[C@H](C)[C@@H]1NC(=O)[C@H](Cc2ccc(O)cc2)NC(=O)CCSSC[C@@H](C(=O)N2CCC[C@H]2C(=O)N[C@@H](CC(C)C)C(=O)NCC(N)=O)N(C)C(=O)[C@H](CC(N)=O)NC(=O)[C@H](CCC(N)=O)NC1=O
- Intrinsic activity [1]: 84%
- EC50 (Oxytocin receptor [3]): 0.29 nM

SMILES: CC[C@H](C)[C@@H]1NC(=O)[C@H](Cc2ccc(O)cc2)NC(=O)[C@@H](N)CSSC[C@@H](C(=O)N2CCC[C@H]2C(=O)N(C)[C@@H](CC(C)C)C(=O)N(C)CC(N)=O)NC(=O)[C@H](CC(N)=O)NC(=O)[C@H](CCC(N)=O)NC1=O
- Intrinsic activity [1]: 96%
- Ki (Oxytocin receptor [2]): 10.7 nM
- EC50 (Oxytocin receptor [3]): 5.52 nM

SMILES: CC[C@H](C)[C@@H]1NC(=O)[C@H](Cc2ccc(O)cc2)NC(=O)[C@@H](N)CSSC[C@@H](C(=O)N2CCC[C@H]2C(=O)N[C@@H](CC(C)C)C(=O)NCC(N)=O)NC(=O)[C@H](CC(N)=O)NC(=O)[C@H](CCC(N)=O)N(C)C1=O
- Ki (Oxytocin receptor [2]): > 1010 nM
- EC50 (Oxytocin receptor [3]): > 1000 nM

SMILES: CC[C@H](C)[C@@H]1NC(=O)[C@H](Cc2ccc(O)cc2)NC(=O)[C@@H](N)CSSC[C@@H](C(=O)N2CCC[C@H]2C(=O)N(C)[C@@H](CC(C)C)C(=O)NCC(N)=O)NC(=O)[C@H](CC(N)=O)NC(=O)[C@H](CCC(N)=O)NC1=O
- Intrinsic activity [1]: 97%
- Ki (Oxytocin receptor [2]): 0.97 nM
- EC50 (Oxytocin receptor [3]): 0.52 nM

SMILES: CC[C@H](C)[C@H]1C(=O)N[C@@H](CCC(N)=O)C(=O)N[C@@H](CC(N)=O)C(=O)N(C)[C@H](C(=O)N2CCC[C@H]2C(=O)N[C@@H](CC(C)C)C(=O)NCC(N)=O)CSSCCC(=O)N[C@@H](Cc2ccc(O)cc2)C(=O)N1C
- EC50 (Oxytocin receptor [3]): > 1000 nM

SMILES: CC[C@H](C)[C@H]1C(=O)N[C@@H](CCC(N)=O)C(=O)N[C@@H](CC(N)=O)C(=O)N(C)[C@H](C(=O)N2CCC[C@H]2C(=O)N[C@@H](CC(C)C)C(=O)NCC(N)=O)CSSC[C@H](N)C(=O)N[C@@H](Cc2ccc(O)cc2)C(=O)N1C
- Intrinsic activity [1]: 94%
- EC50 (Oxytocin receptor [3]): 283 nM

SMILES: CC[C@H](C)[C@@H]1NC(=O)[C@H](Cc2ccc(O)cc2)NC(=O)CCSSC[C@@H](C(=O)N2CCC[C@H]2C(=O)N[C@@H](CC(C)C)C(=O)N(C)CC(N)=O)N(C)C(=O)[C@H](CC(N)=O)NC(=O)[C@H](CCC(N)=O)NC1=O
- Intrinsic activity [1]: 84%
- EC50 (Oxytocin receptor [3]): 2.41 nM

SMILES: CC[C@H](C)[C@@H]1NC(=O)[C@H](Cc2ccc(O)cc2)NC(=O)CCSSC[C@@H](C(=O)N2CCC[C@H]2C(=O)N(C)[C@@H](CC(C)C)C(=O)N(C)CC(N)=O)NC(=O)[C@H](CC(N)=O)NC(=O)[C@H](CCC(N)=O)NC1=O
- Intrinsic activity [1]: 86%
- EC50 (Oxytocin receptor [3]): 0.59 nM

SMILES: CC[C@H](C)[C@@H]1NC(=O)[C@H](Cc2ccc(O)cc2)N(C)C(=O)[C@@H](N)CSSC[C@@H](C(=O)N2CCC[C@H]2C(=O)N[C@@H](CC(C)C)C(=O)NCC(N)=O)N(C)C(=O)[C@H](CC(N)=O)NC(=O)[C@H](CCC(N)=O)NC1=O
- Intrinsic activity [1]: 78%
- EC50 (Oxytocin receptor [3]): 6.98 nM
